“Also recorded” adds a separate entry of the source. Where two headings read alike, the source gives them in different places.
How the values were obtained:
[1] = test system: RL cells; assay: In vitro anti-proliferation (CellTiter-Glo, 72 hr), RL; type: cell-based
Procedure: (§1) Commercially available 8HQ and freshly synthesized G2-8HQ were prepared for in vitro anti-proliferative studies against the following cell lines with and without the presence of 10 μM Cu(+2): (1) A549: […]; (2) BT-549: epithelial cells from ductal tumor; (3) DU-145: human prostate cancer; (4) PANC-1: pancreatic cancer; (5) SU.86.86: a new adoptive pancreatic cell for immunotherapy studies; (6) RL: non-Hodgkin's lymphoma; (7) LnCAP, Prostate cancer cell line; (8) A431, a squamous cell carcinoma line; and (9) UACC-62 a malignant melanoma cell line.
(§2) With regard to the study protocol used, the objective was to conduct a study of the cytotoxicity of W1469 against several cancer cell lines. In the study protocol, preparations for the A549 (Lung) cell line screen are given as an example. The following materials were used: (1) FBS (2) RPMI-1640 medium supplemented with 10% FBS:’ and (3) A549 Cells. The four samples tested are referred to as Items 1-4 below and were placed at 4 °C upon arrival. These four samples were as follows: • Item 1: Tube A (W1469) (500 uM when FBS added) • Item 2: Tube B (W1469g) (1000 uM when FBS added) • Item 3: Tube C (W1469) • Item 4: Tube D (W1469g)
(§3) Add 50 μL of above 2× stocks to appropriate wells to expose appropriate cells to the final dilutions of samples. Add 50 μL media to media and cell control wells and 50 μL media mix to vehicle control wells. Cells are exposed for 72 hr. Following a 72 hr exposure to Sample, perform a CTG assay on all remaining plates.
(§4) At the end of the 72 hr exposure period, remove plates for CellTiter-Glo assay from 37 °C, 5% CO2 incubator and place on the bench at room temperature for 30 mins. Add 100 μL CellTiter-Glo reagent, mix for 2 mins, followed by a further 10 min incubation at room temperature. Record luminescence. Tables showing the resulting plate layouts are included below/

[2] = test system: A431 cells; assay: In vitro anti-proliferation (CellTiter-Glo, 72 hr), A431; type: cell-based
Procedure: as §1, §2, §3, §4
The other cancer cell lines tested gave similar results. […] Three additional cell lines were also studied and described more completely in Example 9 provided herein. These cell lines included cytotoxicity testing of WT1469 (G2-8HQ) against LnCAP a prostate cancer, A431 a squamous carcinoma cell line and UACC-62 a malignant melanoma cell line. All were complexed in situ with copper immediately prior to testing. The results from these additional cell lines and incorporated in Table 2 and Example 9.

[3] = test system: BT-549 cells; assay: In vitro anti-proliferation (CellTiter-Glo, 72 hr), BT-549; type: cell-based
Procedure: as §1, §2, §3, §4

[4] = test system: DU-145 cells; assay: In vitro anti-proliferation (CellTiter-Glo, 72 hr), DU-145; type: cell-based, human
Procedure: as §1, §2, §3, §4

[5] = test system: basal cell carcinoma; assay: Single patient clinical study, topical W1469, basal cell carcinoma; type: in vivo, human
Source text: • Indication: Basil Cell Carcinoma • Rationale: Basil Cell Carcinoma is the most common form of skin cancer with 3.6 Million cases diagnosed each year and rising. It is estimated that 80% of all newly diagnosed skin cancers are BCC. Although rarely fatal, it can be painful and disfiguring and, in some cases, become dangerously invasive. The most common forms of treatment include surgery, radiation treatment, immunotherapy, systemic and topical chemotherapy, and other variations including laser therapy. The currently approved topical treatments for BCC are usually only recommended for more superficial tumors and more extensive monitoring is required because they are generally not effective in destroying cancer cell deeper below the surface. A more complete description of treatment options and their relative effectiveness has been described by the American Cancer Society. […] And if necessary, on a continuing ongoing basis.
The examined treatment approach studied here falls in the category of a topical chemotherapeutic. W1469 is a novel small molecule anti-cancer drug candidate which contains a tumor targeting functional group and has been shown effective against a variety of cancers in vitro. (most recently including squamous cell carcinoma)
Topical gel containing 0.5 mg/ml W1469 in proprietary aqueous alcohol gel, applied initially once daily using a suitable topical applicator.
In general, the Treatment/Patient protocol used for the patient testing was as follows: • 1. Photograph the application site prior to starting the protocol. Note any changes in lesion size, color, etc. of treatment area. • 2. Remove a loaded syringe from the freezer, dry ice or refrigerator and allow to gradually warm to room temperature. • 3. Photograph the syringe each time prior to application. Note the color of the gel contained in the syringe. • 4. Lightly clean the skin surface with alcohol wipe. • 5. […] Let the liquid from the gel absorb into the site without disturbing. Apply once a day at the same time. • 6. Re-cap the syringe and store in the refrigerator until completely used. • 7. Repeat 1-6 each daily during application period. It is noted in this protocol that photographing the syringe used with each application period accomplishes two things.
• 1. Toleration/toxicity • 2. Application methodology • 3. Any visual indications of efficacy • 4. Patient feedback Study Duration: Varied case by case. Generally, two weeks to two months
A person with extensive basil cell carcinoma lesions on both sides of the face, forehead and ear. Note: the clinical study involving Individual 1, due to limitations in available material, at the time was performed with very low concentrations of W1469 and the patient was instructed to use only on the nose area and under the area of the left cheek. The treatment was thus self-administered. A photo of the individual before treatment is included in FIG. 23. Patient condition was monitored and photographed regularly during the treatment period.
Self-administered, variable treatment protocol, drug concentrations and vehicle carrier. […] The lesion was tender to palpation especially to the center and the area around the lesion was with hyperpigmentation. […] No necrotic or hyperkeratotic areas were noted. […] Therapy was reintroduced on a three times-daily dosing schedule and with ethanol-based carrier molecule. […] The centralized portion of the lesion slowly healed over the next 5-day period. Continued healing of the centralized portion of the lesion during the 5-day period status post central necrotic tissue extrusion was shown. During this period the lesion began to flatten, the area became pain free, and localized tissue became less erythematic. A bloody clot in central area resolved and crater size decreased.

[6] = 1 and 0.5 μM, presence of Cu^+2 ions, wide standard deviation
[7] = +Cu (10 μM), 72 hr, G2-8HQ values based on MW of apo form (337), read-out: IC50
[8] = complexed with Cu, multiplied by 337/776=0.43, column 3 duplicate of column 2, listed as W1469, read-out: IC50 (adjusted to MW of copper complex)
[9] = Individual 1, three week period, topical
[10] = Individual 2, after first week of treatment

## O=C(O)[C@H]1O[C@@H](Oc2ccc3cccc(O)c3n2)[C@H](O)[C@@H](O)[C@@H]1O [G2-8HQ, 8-Hydroxy-2-quinolinyl beta-D-glucopyranosiduronic acid]
[1]; [6]
  cytotoxicity: in a percentage of cases, all of the cancer cells were killed at concentrations between at 1 and 0.5 μM; also recorded: in some % of the screens all the cancer cells were killed at these concentrations
[1]; [7]
  IC50: 0.47 µM
[1]; Homo sapiens, RL, 72 h, +Cu (10 μM), 72 hr, G2-8HQ values based on MW of apo form (337), read-out: IC50
  IC50: 0.468 µM
[1]; Homo sapiens, RL, 72 h, −Cu, 72 hr, read-out: IC50
  IC50: > 500 µM
[1]; Homo sapiens, RL, complexed with Cu, multiplied by 337/776=0.43, read-out: IC50 (adjusted to MW of copper complex)
  IC50: 0.2 µM
[2]; +Cu, complexed in situ with copper immediately prior to testing, not based on apo MW, read-out: IC50
  IC50: 85 µM
[2]; Homo sapiens, A-431, +Cu, complexed in situ with copper immediately prior to testing, not based on apo MW, read-out: IC50
  IC50: 64 µM
[2]; Homo sapiens, A-431, complexed with Cu in situ, * differences with or without excipient, suboptimal complexing, read-out: IC50 (adjusted to MW of copper complex)
  IC50: 63.2 µM
[2]; complexed with Cu in situ, * differences with or without excipient, suboptimal complexing, listed as W1469, read-out: IC50 (adjusted to MW of copper complex)
  IC50: 83.4 µM
[3]; [6]
  cytotoxicity: in some percentage of the screens all the cancer cells were killed at these concentrations
[3]; [7]
  IC50: 8.6 µM
[3]; Homo sapiens, BT-549, 72 h, +Cu (10 μM), 72 hr, G2-8HQ values based on MW of apo form (337), read-out: IC50
  IC50: 5.6 µM
[3]; Homo sapiens, BT-549, 72 h, −Cu, 72 hr, read-out: IC50
  IC50: > 500 µM
[3]; Homo sapiens, BT-549, complexed with Cu, multiplied by 337/776=0.43, column 3 duplicate of column 2, read-out: IC50 (adjusted to MW of copper complex)
  IC50: 2.4 µM
[3]; [8]
  IC50: 3.7 µM
[4]; [6]
  cytotoxicity: in some percentage of the screens all the cancer cells were killed at these concentrations
[4]; [7]
  IC50: 8.7 µM
[4]; Homo sapiens, DU-145, 72 h, +Cu (10 μM), 72 hr, G2-8HQ values based on MW of apo form (337), read-out: IC50
  IC50: 7.3 µM
[4]; Homo sapiens, DU-145, 72 h, −Cu, 72 hr, read-out: IC50
  IC50: > 500 µM
[4]; Homo sapiens, DU-145, complexed with Cu, multiplied by 337/776=0.43, column 3 duplicate of column 2, read-out: IC50 (adjusted to MW of copper complex)
  IC50: 3.1 µM
[4]; [8]
  IC50: 3.7 µM
[5]; [9]
  patient's condition: significant amelioration of the patient's condition
  scarring or other disfigurement: did not result in scarring or other disfigurement
[5]; Individual 2, after 7 days of treatment (FIG. 26)
  patient's condition: significant amelioration of the patient's condition
[5]; [10]
  hyperpigmentation: hyperpigmentation is markedly reduced
  lesion response: marked improvement in the lesion was obtained with almost complete resolution
  pain: Area is pain free
[5]; Individual 2, one month following the treatment
  recurrence: another lesion returned to the patient's right cheek
[5]; Individual 2, second lesion
  lesion hyperkeratosis: marked reduction in lesion hyperkeratosis
[5]; Individual 2, second lesion, after two days
  centralized necrotic core: the centralized necrotic core came out of the lesion
[5]; Individual 2, second lesion, three times daily, ethanol-based carrier
  lesion size: lesion size markedly decreased

From patent US20260345654A1, “2,8-DIHYDROXYQUINOLINE GLUCURONIDE DERIVATIVES WITH ENHANCED PROPERTIES FOR USE AS ANTICANCER, ANTIVIRAL, ANTIMICROBIAL, AND OTHER THERAPEUTIC APPLICATIONS” (priority 2023, published 2026)
